What was measured:
Type in all cases: in vivo
[1] = tested on: Tobacco Budworm [Heliothis virescens (Fabricius)] eggs; assay: Tobacco budworm eggs (TBW-E); conditions: percent in solution; 2-day old eggs
In short: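 LC50 is given as percent compound in the dipping solution, fitted from dosage-mortality curves. Two-day-old eggs on paper towel were dipped in acetone solutions (top concentration 0.1%), kept at 78° F on rearing medium, and scored after control hatch and larval feeding.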

[2] = tested on: Cabbage Looper [Trichoplusia ni (Hubner)]; assay: Cabbage looper leaf dip (CL), 3-5 days; conditions: percent in solution, second-instar larvae
In short: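 LC50, as percent test compound in solution, derived from dosage-mortality curves; concentrations started at 0.1% and went lower. Five second-instar larvae per dish fed on acetone-water-dipped, dried squash cotyledons in a humid chamber. Deaths recorded 3-5 days post-infestation.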

[3] = tested on: Housefly [Musca domestica]; assay: Housefly contact mortality in dishes (HF), 48 hours; conditions: μg of test compound per 25 female flies
In short: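 LC50, as μg compound per 25 female flies, comes from dosage-mortality curves with doses from 100 μg downward. Residues were made by evaporating acetone plus 0.01% peanut oil in dishes, onto which 1-2-day-old females were caged; deaths were counted after 48 hours.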

[4] = tested on: Black Bean Aphid [Aphis fabae (Scop.)]; assay: Black bean aphid spray test on nasturtium (BBA), 48 hours; conditions: percent of test compound in sprayed solution
In short: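 LC50, given as percent test compound in the sprayed liquid, was calculated from dosage-mortality curves using concentrations from 0.05% downward. Sprays in 50:50 acetone-water went to runoff on ~5 cm nasturtiums carrying 25-50 aphids of mixed ages, one day after infestation. Deaths were counted 48 h later under greenhouse conditions.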

[5] = tested on: Aster Leafhopper [Macrosteles fascifrens (Stal)]; assay: Aster leafhopper on dipped oat seedlings (LH), 48 hours; conditions: percent in solution, adults/nymphs
Description: The compounds in Tables 1 and 2 above were tested for insecticidal activity using the following testing procedures. LC50 values, based on the results of these tests and calculated according to dosage-mortality curves, are expressed in Table 3.
Aster Leafhopper [Macrosteles fascifrens (Stal)]
Oat seedlings (Avena sp) were grown in a commercial potting soil in cups. When the plants were approximately 10 cm tall they were thinned to three plants per cup and dipped for 2-3 seconds in 50-50 acetone-water solutions of the test compounds. When the plants had dried, a clear plastic tube was placed over them and the bottom end pressed into the cup. Ten aster leafhopper adults/nymphs were then placed in each tube and the tops of the tubes covered with white organdy cloth. Mortality counts were made after 48 hours. Test concentrations ranged from 0.05% down to that at which 50% mortality occurred. The LC50 values are expressed below in Table 3 under the heading "LH" in terms of the percent of the test compound in the solution.

[6] = tested on: Maize weevil [Sitophilus zeamais (Motschulsky)]; assay: Maize weevil on dipped corn seeds (MW), 48 hours; conditions: percent in solution, adult weevils
In short: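 LC50, given as percent of compound in dipping solution, comes from dosage-mortality curves over concentrations descending from 0.01%. Four corn seeds soaked 2-3 s in 50:50 acetone:water solution were dried and held with 10 adult weevils, about 25° C, mortality read after 48 h.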

Row | Compound | LC50 TBW E (eggs) [1] [%] | LC50 CL [2] [%] | LC50 HF [3] [µg] | LC50 BBA [4] [%] | LC50 LH [5] [%] | LC50 MW [6] [%]
1 | CC(C)CC(=Nc1cc(Cl)cc(Cl)c1)OCc1cccc(Oc2ccccc2)c1 [Compound 10] | > 0.1 | 0.01 | > 100 | 0.05 | > 0.05 | 
2 | CC(C)C(=Nc1cc(Cl)cc(Cl)c1)OCc1cccc(Oc2ccccc2)c1 [Compound 16] | 0.04 | 0.004 | 20 | 0.0004 | 0.0005 | 
3 | CC(C)C(=Nc1cc(Cl)c(Cl)c(Cl)c1)OCc1cccc(Oc2ccccc2)c1 [Compound 20] | < 0.1 | 0.0025 | 64 | 0.0006 | 0.003 | 
4 | Fc1ccc(N=C(OCc2cccc(Oc3ccccc3)c2)C(Cl)=C(Cl)Cl)cc1 [Compound 49] | > 0.05 | 0.007 | > 100 | 0.05 | > 0.05 | 
5 | CC(C)C(=Nc1c(F)c(F)cc(F)c1F)OCc1cccc(Oc2ccccc2)c1 [Compound 57] | 0.1 | 0.004 | > 100 | 0.03 | 0.0005 | 
6 | COc1ccc(OC)c(N=C(OCc2cccc(Oc3ccccc3)c2)C(C)C)c1 [Compound 69] | > 0.1 | 0.09 | > 100 | > 0.05 | > 0.05 | 
7 | CC(C)C(=Nc1ccc(OC(F)(F)F)cc1)OCc1cccc(Oc2ccccc2)c1 [Compound 70] | 0.01 | < 0.1 | < 100 | < 0.05 | > 0.05 | 
8 | CC(C)C(=Nc1ccc(C(F)(F)F)c(Cl)c1)OCc1cccc(Oc2ccccc2)c1 [Compound 83] | > 0.1 | 0.007 | > 100 | 0.05 | > 0.05 | 
9 | Cc1ccc(N=C(OCc2cccc(Oc3ccccc3)c2)C(C)C)cc1Cl [Compound 90] | 0.016 | > 0.1 | > 100 | 0.0003 | 0.001 | 
10 | COc1c(Cl)cc(N=C(OCc2cccc(Oc3ccccc3)c2)C(C)C)cc1Cl [Compound 91] | > 0.01 | 0.002 | 37 | 0.001 | 0.003 | 
11 | CC(C)C(=Nc1c(Cl)cc([N+](=O)[O-])cc1Cl)OCc1cccc(Oc2ccccc2)c1 [Compound 92] | > 0.1 | 0.015 | > 100 | > 0.05 | > 0.05 | 
12 | Clc1ccc(N=C(OCc2cccc(Oc3ccccc3)c2)C(Cl)Cl)c2ccccc12 [Compound 98] | 0.1 | 0.016 | > 100 | > 0.05 | > 0.05 | 
13 | Cc1c(Cl)cc(N=C(OCc2cccc(Oc3ccccc3)c2)C(C)C)cc1Cl [Compound 101] | > 0.1 | 0.0045 | 81 | 0.002 | 0.0008 | 
14 | CCOC(=O)c1cc(N=C(OCc2cccc(Oc3ccccc3)c2)C(C)C)ccc1Cl [Compound 102] | > 0.1 | 0.075 | > 100 | 0.05 | > 0.05 | 
15 | CC(C)(Cl)C(=Nc1ccc(C#N)c(Cl)c1)OCc1cccc(Oc2ccccc2)c1 [Compound 108] | > 0.1 | 0.002 | 44 | 0.01 | > 0.01 | 
16 | CC(C)C(=Nc1c(F)cc(F)cc1Br)OCc1cccc(Oc2ccccc2)c1 [Compound 129] | > 0.1 | 0.005 | > 100 | 0.03 | 0.01 | 
17 | CC(C)C(=Nc1ccc(Br)cc1)OCc1cccc(Oc2ccccc2)c1 [Compound 131] | > 0.1 | 0.0045 | 17 | 0.003 | 0.005 | 

Row | Compound | LC50 TBW E (eggs) [1] [%] | LC50 CL [2] [%] | LC50 HF [3] [µg] | LC50 BBA [4] [%] | LC50 LH [5] [%] | LC50 MW [6] [%]
18 | CC(C)(C)C(=Nc1ccc(Br)cc1)OCc1cccc(Oc2ccccc2)c1 [Compound 135] | > 0.1 | 0.004 | > 100 | > 0.05 | > 0.05 | 
19 | CC(C)C(=Nc1ccc(I)cc1)OCc1cccc(Oc2ccccc2)c1 [Compound 137] | 0.04 | 0.003 | 18 | 0.03 | 0.008 | 
20 | CCc1cccc(N=C(OCc2cccc(Oc3ccccc3)c2)C(C)C)c1 [Compound 154] | 0.1 | 0.004 | 25 | 0.002 | > 0.05 | 
21 | CCc1ccc(N=C(OCc2cccc(Oc3ccc(F)cc3)c2)C(C)C)cc1 [Compound 159] | 0.08 | 0.001 | 25 | 0.001 | 0.0025 | 
22 | CCc1ccc(N=C(OCc2cccc(Oc3ccccc3)c2)C(C)C)cc1 [Compound 161] | 0.07 | 0.0014 | 15 | 0.0006 | 0.002 | 
23 | CCc1cccc(N=C(OCc2cccc(Oc3ccccc3)c2)C(C)(C)C)c1 [Compound 162] | > 0.1 | 0.035 | > 100 | > 0.05 | > 0.05 | 
24 | CC(C)C(=Nc1ccc2c(c1)CCC2)OCc1cccc(Oc2ccccc2)c1 [Compound 187] | > 0.1 | 0.0025 | 15 | 0.001 | 0.0025 | 
25 | CCCC(=Nc1ccc2c(c1)OCO2)OCc1cccc(Oc2ccccc2)c1 [Compound 188] | > 0.1 | 0.002 | 12 |  | > 0.05 | 
26 | Cc1ccc(Oc2cccc(COC(=Nc3ccc(F)c(Cl)c3)C(C)C)c2)cc1 [Compound 225] | > 0.1 | 0.0025 | > 100 | 0.006 | > 0.05 | 
27 | CC(C)C(=Nc1ccc(C(C)C)cc1)OCc1cccc(Oc2ccc(F)cc2)c1 [Compound 228] | > 0.1 | 0.0025 | > 100 | 0.01 | > 0.05 | 
28 | CC(C)C(=Nc1ccc2c(c1)OC(C)(C)O2)OCc1ccc(F)c(Oc2ccccc2)c1 [Compound 242] | > 0.1 | 0.00025 | < 100 | < 0.05 | > 0.05 | 
29 | CSc1ccc(Oc2cccc(COC(=Nc3ccc(F)cc3)C(C)C)c2)cc1 [Compound 257] | > 0.1 | 0.008 | > 100 | 0.05 | > 0.05 | 
30 | CC(C)C(=Nc1cc(F)ccc1Cl)OCc1ccc(F)c(Oc2ccc(F)cc2)c1 [Compound 303] | > 0.1 | 0.0015 | > 100 |  | 0.0005 | 
31 | CC(C)C(=Nc1ccc2c(c1)OCO2)OCc1cccc(Oc2ccc(F)cc2)n1 [Compound 465] | 0.027 | 0.0017 | 8 |  | 0.0025 | 
32 | CC(C)C(=Nc1ccc(F)c(F)c1)OCc1cccc(Oc2ccc(Cl)cc2)n1 [Compound 559] | 0.017 | 0.00027 | < 100 | 0.0035 |  | > 0.01
33 | C=C(C)C(=Nc1ccc(C(F)(F)F)cc1)OCc1cccc(Oc2ccc(Cl)cc2)n1 [Compound 560] | < 0.1 | 0.0015 | < 100 | 0.0025 |  | > 0.01

Reference: patent publication US5045566A, “Novel imidate insecticides” (ICI Americas Inc., priority 1989, dated 1991)
